Measured values reported in patent US20040106545A1, “Compounds and methods for modulating cell adhesion” (priority 1996, published 2004).
Several values for one entry are separate records, joined by “and”; a condition that tells them apart may be missing. Equal entries are not always repeated. Entries after “also recorded” stand apart in the source; their conditions may differ.

Legend:
human skin = assay: Human skin permeability, Franz Cell apparatus
Procedure: Another cell adhesion assay involves evaluating the effect of a modulating agent on permeability of adherent epithelial and/or endothelial cell layers. For example, the effect on permeability of human skin may be evaluated. Such skin may be derived from a natural source or may be synthetic. Human abdominal skin for use in such assays may generally be obtained from humans at autopsy within 24 hours of death. Briefly, a cyclic peptide and a test marker (e.g., the fluorescent markers Oregon Green™ and Rhodamine Green™ Dextran) may be dissolved in a sterile buffer, and the ability of the marker to penetrate through the skin and into a receptor fluid may be measured using a Franz Cell apparatus (Franz, Curr. Prob. Dermatol. 7:58-68, 1978; Franz, J. Invest. Dermatol. 64:190-195, 1975). In general, a modulating agent that enhances the permeability of human skin results in a statistically significant increase in the amount of marker in the receptor compartment after 6-48 hours in the presence of 500 μg/mL modulating agent. This assay evaluates the effect of a modulating agent on E-cadherin mediated cell adhesion.
Abdominal skin from humans at autopsy within 24 hours of death was used in these assays. The effect of N—Ac-CHAVC-NH2 (SEQ ID NO:10) and N—Ac-CHGVC-NH2 (SEQ ID NO:11), used at a concentration of 500 μg/ml or 2.5 mg/ml, on the penetration of two fluorescent markers, Oregon Green 488 (charge −1, MW 386 daltons) and Rhodamine Green 3000 Dextran (no charge, MW 3000 daltons) through human skin was then evaluated utilizing a Franz Cell apparatus (Franz, Curr. Prob. Dermatol. 7:58-68, 1978; Franz, J. Invest. Dermatol. 64:190-195, 1975). The peptides and markers were dissolved in sterile phosphate buffer, pH 7.2, and phosphate buffer was used as the receptor fluid. 150 μl of solution containing 0.2 mg Oregon Green and 1.0 mg Rhodamine Green was used to evaluate 500 μg/ml peptide; 200 μl of solution containing 0.05 mg Oregon Green and 1.250 mg Rhodamine Green was used to evaluate 2.5 mg/ml peptide. The solution was placed on top of the epidermal side of the skin, and the penetration of the markers through the skin was assessed using a fluorescent spectrophotometric method (in a Perkin Elmer 650-105 Fluorescence Spectrophotometer, and comparing the reading to a standard curve) at 6, 12, 24, 36, and 48 hours after the start of the experiment. The fluorescent units were converted to a concentration unit of microgram/5 ml (volume of the receiver compartment) using a standard curve and regression analysis equations. The curve was linear for the concentrations tested for both markers (r^2=1 for OrG and 0.997 for RhG). For each peptide and marker combination, the experiment was performed in triplicate.

[1] = test system: SKOV3 human ovarian cancer cells; assay: Induction of apoptosis in SKOV3 cancer cells, in situ cell death detection; type: cell-based; details: 0.5 or 0.25 mg/mL, 48 hours
Procedure: Direct assays of induction of apoptosis may be performed using any standard technique. For example, cadherin-expressing cells (e.g., SKOV3 human ovarian cancer cells) may be plated onto poly-L-lysine coated glass slides and cultured with 500 μg/mL of modulating agent for 24-48 hours. Cells may then be fixed and assayed for cell death using any of a variety of well known methods. For example, an in situ cell death detection kit may be purchased from Boehringer Mannheim (Laval, Quebec) and used according to the manufacturer's instructions.
SKOV3 human ovarian cancer cells cultured in the presence of either N—Ac-CHAVC-NH2 (SEQ ID NO:10) or a control peptide (N—Ac-CHGVC-NH2; SEQ ID NO:11) in MEM with 10% FBS were plated onto poly-L-lysine coated glass slides. The cells were cultured for 24 or 48 hours and fixed with 4% paraformaldehyde for 30 minutes at room temperature. The slides were then washed three times with PBS and assessed for cell death. Cells were treated with 0.5 or 0.25 mg/mL of N—Ac-CHAVC-NH2 (SEQ ID NO:10) or the control N—Ac-CHGVC-NH2 (SEQ ID NO:11), as indicated. Cell death was measured as described by Gavrieli et al, J. Cell. Biol. 119:493-501, 1992 and using the In situ cell death detection kit (Boehringer Mannheim; Laval, Quebec).

Melanoma ME115 cells = assay: Disruption of melanoma cell adhesion, pan-cadherin staining; type: cell-based, human; details: 500 μg/mL, 48 hours
Procedure: Melanoma ME115 cells (kindly provided by Meenhard Herlyn, Wistar Institute, Philadelphia, Pa.) were plated on glass coverslips and cultured for 24 hours in 50% keratinocyte growth medium (Clonetics, San Diego, Calif.) and 50% L15. Fresh medium containing the cyclic peptides (final concentration 500 μg/mL media) N—Ac-CHAVC-NH2 (SEQ ID NO:10) or N—Ac-CHGVC-NH2 (SEQ ID NO:11) was then added. Following 24 hours of culture in the presence of the peptides, the medium was removed and fresh medium containing the peptides was added. The cells were fixed 24 hours later with cold methanol and stored in phosphate buffered saline (PBS).
Coverslips were blocked for 1 hour in 3% ovalbumin/PBS and incubated for a further 1 hour in the presence of rabbit pan-cadherin antibody (Sigma Chemical Co., St. Louis, Mo.) diluted 1:500. Primary and secondary antibodies were diluted in PBS containing 6% normal goat serum. Following incubation in the primary antibody, coverslips were washed 3 times for 5 minutes each in PBS and incubated for 1 hour in goat anti-rabbit immunoglobulin G conjugated to fluorescein (Kiekegard and Perry, South San Francisco, Calif.) diluted 1:100. Following a further wash in PBS (3×5 minutes) coverslips were mounted in Vectashield (Vector Labs, Burlingame, Calif.) and viewed with a Zeiss infinity corrected microscope.

[2] = 500 μg/ml Peptide, t = 6 hours, Mean
[3] = 500 μg/ml Peptide, t = 6 hours, single replicates, listed as Sample#1
[4] = 500 μg/ml Peptide, t = 12 hours, Mean
[5] = 500 μg/ml Peptide, t = 12 hours, single replicates, listed as Sample#1
[6] = 500 μg/ml Peptide, t = 24 hours, Mean
[7] = 500 μg/ml Peptide, t = 24 hours, single replicates, listed as Sample#1
[8] = 500 μg/ml Peptide, t = 36 hours, Mean
[9] = 500 μg/ml Peptide, t = 36 hours, single replicates, listed as Sample#1
[10] = 500 μg/ml Peptide, t = 48 hours, Mean
[11] = 500 μg/ml Peptide, t = 48 hours, single replicates, listed as Sample#1
[12] = 2.5 mg/ml Peptide, t = 6 hours, Mean
[13] = 2.5 mg/ml Peptide, t = 6 hours, single replicates, listed as Sample#1
[14] = 2.5 mg/ml Peptide, t = 12 hours, Mean
[15] = 2.5 mg/ml Peptide, t = 12 hours, single replicates, listed as Sample#1
[16] = 2.5 mg/ml Peptide, t = 24 hours, Mean
[17] = 2.5 mg/ml Peptide, t = 24 hours, single replicates, listed as Sample#1
[18] = 2.5 mg/ml Peptide, t = 36 hours, Mean
[19] = 2.5 mg/ml Peptide, t = 36 hours, single replicates, listed as Sample#1
[20] = 2.5 mg/ml Peptide, t = 48 hours, Mean
[21] = 2.5 mg/ml Peptide, t = 48 hours, single replicates, listed as Sample#1

## CC(=O)N[C@H]1CSSC[C@@H](C(N)=O)NC(=O)[C@H](C(C)C)NC(=O)[C@H](C)NC(=O)[C@H](Cc2c[nH]cn2)NC1=O [N—Ac—CHAVC—NH2, N-Ac-Cys-His-Ala-Val-Cys-NH2]
Human skin; 500 μg/ml
  penetration of Oregon Green through the skin, compared to control peptide: slightly increased the penetration of Oregon Green through the skin
  penetration of Rhodamine Green through the skin, compared to control peptide: significantly increased
Human skin; [2]
  Percutaneous absorption concentration for Dextran Rhodamine Green 3000: 0.8 mg/5ml
  Percutaneous absorption concentration for Oregon Green 488: 0.084 mg/5ml
Human skin; [3]
  Percutaneous absorption concentration for Dextran Rhodamine Green 3000: 0.4 mg/5ml and 0.8 mg/5ml and 1.2 mg/5ml
  Percutaneous absorption concentration for Oregon Green 488: 0.028 mg/5ml and 0.167 mg/5ml and 0.058 mg/5ml
Human skin; [4]
  Percutaneous absorption concentration for Dextran Rhodamine Green 3000: 3.52 mg/5ml
  Percutaneous absorption concentration for Oregon Green 488: 0.225 mg/5ml
Human skin; [5]
  Percutaneous absorption concentration for Dextran Rhodamine Green 3000: 3.0 mg/5ml and 2.0 mg/5ml and 5.556 mg/5ml
  Percutaneous absorption concentration for Oregon Green 488: 0.096 mg/5ml and 0.322 mg/5ml and 0.352 mg/5ml
Human skin; [6]
  Percutaneous absorption concentration for Dextran Rhodamine Green 3000: 11.15 mg/5ml
  Percutaneous absorption concentration for Oregon Green 488: 0.780 mg/5ml
Human skin; [7]
  Percutaneous absorption concentration for Dextran Rhodamine Green 3000: 16.174 mg/5ml and 4.074 mg/5ml and 13.158 mg/5ml
  Percutaneous absorption concentration for Oregon Green 488: 0.470 mg/5ml and 1.096 mg/5ml and 0.773 mg/5ml
Human skin; [8]
  Percutaneous absorption concentration for Dextran Rhodamine Green 3000: 14.72 mg/5ml
  Percutaneous absorption concentration for Oregon Green 488: 1.00 mg/5ml
Human skin; [9]
  Percutaneous absorption concentration for Dextran Rhodamine Green 3000: 21.044 mg/5ml and 5.556 mg/5ml and 17.565 mg/5ml
  Percutaneous absorption concentration for Oregon Green 488: 0.544 mg/5ml and 1.56 mg/5ml and 0.902 mg/5ml
Human skin; [10]
  Percutaneous absorption concentration for Dextran Rhodamine Green 3000: 20.02 mg/5ml
  Percutaneous absorption concentration for Oregon Green 488: 1.120 mg/5ml
Human skin; [11]
  Percutaneous absorption concentration for Dextran Rhodamine Green 3000: 25.747 mg/5ml and 6.481 mg/5ml and 27.826 mg/5ml
  Percutaneous absorption concentration for Oregon Green 488: 0.665 mg/5ml and 1.725 mg/5ml and 0.971 mg/5ml
Human skin; 2.5 mg/ml
  penetration of Oregon Green through the skin, compared to control peptide: increased the penetration of Oregon Green through the skin
  penetration of Rhodamine Green through the skin, compared to control peptide: significantly increased
Human skin; [12]
  Percutaneous absorption concentration for Dextran Rhodamine Green 3000: 12.66 mg/5ml
  Percutaneous absorption concentration for Oregon Green 488: 0.14 mg/5ml
Human skin; [13]
  Percutaneous absorption concentration for Dextran Rhodamine Green 3000: 24.52 mg/5ml and 2.4 mg/5ml and 11.05 mg/5ml
  Percutaneous absorption concentration for Oregon Green 488: 0.14 mg/5ml and 0.11 mg/5ml and 0.16 mg/5ml
Human skin; [14]
  Percutaneous absorption concentration for Dextran Rhodamine Green 3000: 31.47 mg/5ml
  Percutaneous absorption concentration for Oregon Green 488: 0.40 mg/5ml
Human skin; [15]
  Percutaneous absorption concentration for Dextran Rhodamine Green 3000: 45.35 mg/5ml and 25.22 mg/5ml and 23.83 mg/5ml
  Percutaneous absorption concentration for Oregon Green 488: 0.44 mg/5ml and 0.32 mg/5ml and 0.45 mg/5ml
Human skin; [16]
  Percutaneous absorption concentration for Dextran Rhodamine Green 3000: 48.78 mg/5ml
  Percutaneous absorption concentration for Oregon Green 488: 0.54 mg/5ml
Human skin; [17]
  Percutaneous absorption concentration for Dextran Rhodamine Green 3000: 66.28 mg/5ml and 35.22 mg/5ml and 44.85 mg/5ml
  Percutaneous absorption concentration for Oregon Green 488: 0.67 mg/5ml and 0.33 mg/5ml and 0.63 mg/5ml
Human skin; [18]
  Percutaneous absorption concentration for Dextran Rhodamine Green 3000: 71.28 mg/5ml
  Percutaneous absorption concentration for Oregon Green 488: 0.88 mg/5ml
Human skin; [19]
  Percutaneous absorption concentration for Dextran Rhodamine Green 3000: 120.0 mg/5ml and 42.36 mg/5ml and 51.50 mg/5ml
  Percutaneous absorption concentration for Oregon Green 488: 0.76 mg/5ml and 0.88 mg/5ml and 0.99 mg/5ml
Human skin; [20]
  Percutaneous absorption concentration for Dextran Rhodamine Green 3000: 133.56 mg/5ml
  Percutaneous absorption concentration for Oregon Green 488: 0.82 mg/5ml
Human skin; [21]
  Percutaneous absorption concentration for Dextran Rhodamine Green 3000: 146.79 mg/5ml and 47.00 mg/5ml and 60.1 mg/5ml
  Percutaneous absorption concentration for Oregon Green 488: 0.83 mg/5ml and 0.56 mg/5ml and 1.06 mg/5ml
[1]
  cell death of SKOV3 cells: fluorescent green nuclei in FIGS. 35C and 35D indicate cell death; also recorded: can cause human ovarian cancer cell death
Melanoma ME115 cells
  cadherin staining of ME115 cells: cadherin is localized in intracellular vesicles; also recorded: absence of cell membrane staining and the appearance of bright intracellular vesicular staining
  melanoma cell adhesion: disrupts melanoma cell adhesion
